In patent US20250177292A1, “METHOD FOR TREATMENT OF PARKINSON'S DISEASE” (NeuroDerm, Ltd., priority 2013, published 2025):

Legend:
[1] = Stability of carbidopa formulations with and without levodopa (Table H); assay type: physicochemical; conditions: in the presence of LD
Source text: The effect of levodopa on the stability of carbidopa was investigated. Table H indicates results.
It appears that LD may protect CD from degradation.

[2] = Effect of carbidopa on stability of levodopa formulations in vitro (Tables F, G, FIG. 1A); assay type: physicochemical
Description: 6% by weight levodopa and arginine solution with various concentrations (2, 1.5, 1, 0.5%) of carbidopa or no carbidopa were tested for physical stability in vitro. […] 1B. 7% by weight levodopa and arginine solution, with or without 2% carbidopa by weight, continuously administered in to the subcutaneous tissue of a 5×5 cm fresh, full-thickness pig skin.
The effect of carbidopa on levodopa formulations was investigated. Levodopa (LD) formulations were prepared with 0, 0.5, 1, 1.5 and 2% by weight carbidopa (CD) and a constant concentration of arginine.
In an additional experiment, LD formulations were prepared with 0, 0.5, 1 and 2% CD and respective concentrations of arginine.

pigs = conditions: pig, in vivo, sc
Description: The effect of carbidopa on levodopa local toxicity was investigated in pigs: solutions containing 6% LD and 0, 0.5 or 1% CD with the respective amount of arginine (13.5, 14.2 or 14.8%, respectively) were continuously administered SC to pigs at 0.16 ml/h×24 h. Each formulation was administered to 2 pigs. Skin samples were collected 8±1 days thereafter.

pig skin = assay: Continuous administration into full-thickness pig skin ex vivo (FIG. 1B); conditions: 7% LD/arginine solution with 2% CD, 0.08 ml/h×18 h, 37° C.
Description: FIGS. 1A-1B show the effect of carbidopa on the stability of levodopa in vitro and ex vivo: 1A. 6% by weight levodopa and arginine solution with various concentrations (2, 1.5, 1, 0.5%) of carbidopa or no carbidopa were tested for physical stability in vitro. […] 1B. 7% by weight levodopa and arginine solution, with or without 2% carbidopa by weight, continuously administered in to the subcutaneous tissue of a 5×5 cm fresh, full-thickness pig skin.
A 7% LD/arginine solution, with or without 2% CD, was continuously administered at 0.08 ml/h×18 h, 37° C. into a 5×5 cm fresh, full-thickness pig skin.

[3] = cited from earlier work
[4] = cited from earlier work; remark: listed apart in the source
[5] = Plasma LD, CD and 3-OMD during continuous SC LD/CD with oral entacapone in human volunteers (FIG. 6); assay type: in vivo, human
Description: A single center, double-blind, randomized, placebo-controlled, study was conducted with six healthy Caucasian males volunteers, aged 18-40 years old. LD (6%)/CD (1.5%) was administered at a rate of […], corresponding to 360 mg of LD and 90 mg of CD per 24 hours. […] Plasma LD, CD and 3-OMD concentrations were quantified at pre-determined time points.

[6] = Titration with acetic or lactic acid: pH and physical stability (Table D); assay type: physicochemical
Source text: Formulations containing 6/1.5% and 5.4/1.5% LD/CD and varying L-Arg concentrations were titrated with acetic acid (100%) or lactic acid (85%), to study the effect of pH and L-Arg concentration on the physical stability of the solutions (Table D).

C[C@@](Cc1ccc(O)c(O)c1)(NN)C(=O)O [CD, carbidopa]
Sensitivity of CD to oxidation and degradation [1]: more stable in the presence of LD | Effect on the chemical stability of levodopa ([2]; Table F): does not have a significant effect | Dark yellow color formation ([2]; in the absence of air (N2 in the head space), 0.5% carbidopa): sufficient to inhibit this color formation | Dark yellow color formation ([2]; in the presence of air, 6% levodopa and arginine solution with 0.5-2% carbidopa): prevented dark yellow color formation | Local levodopa dependent subcutaneous toxicity (pigs): reduces the severity and extent | Oxidation of LD ex vivo (black by-products) (pig skin): lack of black by-products formation | Oxidation of LD ex vivo (black by-products) (pig skin; listed as carbidopa): inhibition of oxidation

CCN(CC)C(=O)/C(C#N)=C/c1cc(O)c(O)c([N+](=O)[O-])c1 [E, entacapone]
Increase in the level of levodopa ([3]; according to Nyholm et al.): up to 33% | Reduction of the dose of levodopa and carbidopa maintaining the desired blood level of levodopa ([3]; oral 200 mg entacapone, intraintestinal infusion of levodopa and carbidopa): 20% | Highest increase in the total amount of levodopa ([4]; after 400 mg dose of entacapone, oral levodopa and carbidopa): about 33% | Total amount of carbidopa in blood ([4]; high doses of entacapone (400 mg and 800 mg)): decrease the total amount of carbidopa in blood | Steady state of plasma concentrations of LD ([5]; 24 hours after LD/CD infusion initiation, 9 hours after entacapone dosing initiation): did not reach a steady state | Plasma concentrations of 3-OMD ([5]; human, in vivo): significantly reduced | Blood level of levodopa ([5]; male, human, in vivo): about 620 ng/ml | Increase of the blood level of levodopa ([5]; male, human, in vivo): more than 40%

O=C1O[C@H]([C@@H](O)CO)C(O)=C1O [ascorbic acid]
Reduction of the pH as compared to Na-ascorbate [6]: 0.1-0.15 units
